Measured values taken from patent US20250319032A1, “PHARMACEUTICAL COMPOSITIONS OF RIBOCICLIB” (Novartis AG, priority 2024, published 2025).

Experiment: Nitrite content (ion chromatography; LC-FLD with DAN derivatisation; Griess test) in drug substance, intermediates, reagents, solvents, filters, excipients
Type: physicochemical
Parameters: Nitrite content T0 (enhanced method): unit: ppm
Settings: for Nitrite NAT enhanced sample prep. (ppm) / Nitrite NAP method (ppm): ribociclib succinate drug substance batches at release
Description: The method of testing for the presence and/or total amount of nitrites that is used in the methods of the invention may be any method which allows for the detection and/or quantitation of nitrites in a composition. For example, the method may be the Griess test. The Griess test allows for the detection and analysis of nitrite by the formation of a red-pink colour upon treatment of a nitrite-containing sample with the Griess reagent. The Griess reagent consists of two components in an acidic solution: an aniline derivative and a coupling agent. The most common arrangements use sulfanilamide and N-(1-naphthyl)ethylenediamine. For example 0.2% N-(1-naphthyl)ethylenediamine dihydrochloride and 2% sulfanilamide in 5% phosphoric acid may be used as a Griess reagent. Other aniline derivatives that may be used in a Griess reagent include sulfanilic acid, nitroaniline, and p-aminoacetophenone.
The Griess test involves two subsequent reactions, as shown in the scheme below. When the aniline derivative (e.g., sulfanilamide) is added, the nitrite ion reacts with it in the Griess diazotization reaction to form a diazonium salt, which then reacts with N-(1-naphthyl)ethylenediamine in an azo-coupling reaction, forming a pink-red azo-dye. Using a spectrophotometer, the nitrite concentration can then be quantitatively detected.
Additionally purified water; e.g. Milli Q • 2.
• 10 mM KH2PO4 Weigh accurately about 1.361 g of KH2PO4 into a 1 L volumetric flask, dissolve it in approximately 950 mL of additionally purified water and adjust the pH to 8.0 (with 2.7 M NaOH). Make up to the mark with additionally purified water. • 0.62 M HCl Add a few millilitres (e.g. 20 mL) of additionally purified water to a 200 mL volumetric flask, add 10.280 mL of concentrated HCl, mix and make up to the mark with additionally purified water. • 2.7 M NaOH Weigh accurately about 1.092 g of NaOH pellets into a 10 mL volumetric flask and dissolve it in additionally purified water. Cool to room temperature and make up to the mark with the same solvent. • Reagent DAN Weigh accurately about 5 mg of 2,3-diaminophthalene into a 100 mL volumetric flask and dissolve it with the solvent (methanol/water 1:1 (v/v)). Dilute up to the mark and ensure visual full dissolution. Use an amberglass flask. • Mobile phase A Mix 950 mL of 10 mM KH2PO4 solution (pH=8) and add 50 mL methanol. • Mobile phase B Methanol. • Solvent Methanol/water 1:1 (v/v), e.g. mix 2000 mL of additionally purified water and 2000 mL methanol.
• Instrument: HPLC with FLR detector; e.g. Waters Arc or equivalent • Column: C18 50×4.6 mm, 2.5 μm, e.g. XBridge C18 2.5 μm, 4.650 mm or equivalent
• Notes It is recommended to wear additional protective equipment (face mask and gloves) during weighing. • It is recommended to wash the column with 50% methanol after the analysis (example of preparation: mix 500 mL methanol and 500 m1 of additionally purified water). • It is recommended to rinse the injector with solvent after each injection. • All glassware and tools should be rinsed with additionally purified water before use. It is not recommended to leave the solutions open for a longer time before measurement. • Blank solution 1 Transfer 1 mL of solvent into a HPLC vial and perform derivatization as described below. • Blank solution 2 Transfer 10 mL of solvent into a single use glass vial and mix it on a magnetic stirrer for 30 min. Transfer the solution into a 5 mL centrifuge tube and centrifuge for 10 min at 12000 rpm. […] Fill up to the mark with solvent and mix. • (Cnitrite≈0.0005 mg/mL) • Comparison solution Transfer 10 mL of nitrite stock solution into a 500 mL volumetric flask. • (2 parallels) Fill up to the mark with solvent and mix. • Transfer 1 mL solution into a HPLC vial and perform the derivatization as described below. • (Cnitrite≈100 ppb) • Sample solution Accurately weigh about 1000 mg of the sample into a glass vial for single use and add 10 mL of solvent.

SMILES	Nitrite NAT enhanced sample prep. (ppm) (manufacturer Raybow - DS04)	Nitrite NAT enhanced sample prep. (ppm) (manufacturer Raybow - DS05)	Nitrite NAP method (ppm)	Nitrite NAT enhanced sample prep. (ppm)	other results
CN(C)C(=O)c1cc2cnc(Nc3ccc(N4CCNCC4)cn3)nc2n1C1CCCC1.O=C(O)CCC(=O)O [RIBOCICLIB SUCCINATE 833268A196]	1.1	0.1			
CN(C)C(=O)c1cc2cnc(Nc3ccc(N4CCNCC4)cn3)nc2n1C1CCCC1.O=C(O)CCC(=O)O [RIBOCICLIB SUCCINATE 833268A144]	<0.1	<0.1			
CN(C)C(=O)c1cc2cnc(Nc3ccc(N4CCNCC4)cn3)nc2n1C1CCCC1.O=C(O)CCC(=O)O [RIBOCICLIB SUCCINATE 833268A211]	<0.1				
CN(C)C(=O)c1cc2cnc(Nc3ccc(N4CCNCC4)cn3)nc2n1C1CCCC1.O=C(O)CCC(=O)O [RIBOCICLIB SUCCINATE 833268R010]	<0.1				
CN(C)C(=O)c1cc2cnc(Nc3ccc(N4CCNCC4)cn3)nc2n1C1CCCC1.O=C(O)CCC(=O)O [RIBOCICLIB SUCCINATE 833268R012]	<0.1				
CN(C)C(=O)c1cc2cnc(Nc3ccc(N4CCNCC4)cn3)nc2n1C1CCCC1.O=C(O)CCC(=O)O [Batch B696587]			0.2	<0.1	Nitrite content T0 (enhanced method) (drug substance manufactured at Menges, T0): <0.1
CN(C)C(=O)c1cc2cnc(Nc3ccc(N4CCNCC4)cn3)nc2n1C1CCCC1.O=C(O)CCC(=O)O [Batch B698295]			0.3	0.4	
CN(C)C(=O)c1cc2cnc(Nc3ccc(N4CCNCC4)cn3)nc2n1C1CCCC1.O=C(O)CCC(=O)O [RIBOCICLIB SUCCINATE 833268A212]	<0.1				
CN(C)C(=O)c1cc2cnc(Nc3ccc(N4CCNCC4)cn3)nc2n1C1CCCC1.O=C(O)CCC(=O)O [Batch B710669]			0.1	<0.1	
CN(C)C(=O)c1cc2cnc(Nc3ccc(N4CCNCC4)cn3)nc2n1C1CCCC1.O=C(O)CCC(=O)O [Batch B698294]			0.2	0.2	
CN(C)C(=O)c1cc2cnc(Nc3ccc(N4CCNCC4)cn3)nc2n1C1CCCC1.O=C(O)CCC(=O)O [Batch B708688]			0.2	<0.1	
CN(C)C(=O)c1cc2cnc(Nc3ccc(N4CCNCC4)cn3)nc2n1C1CCCC1.O=C(O)CCC(=O)O [Batch B696589]			0.2	<0.1	
CN(C)C(=O)c1cc2cnc(Nc3ccc(N4CCNCC4)cn3)nc2n1C1CCCC1.O=C(O)CCC(=O)O [RIBOCICLIB SUCCINATE 833268A198]	0.1	0.1			
CN(C)C(=O)c1cc2cnc(Nc3ccc(N4CCNCC4)cn3)nc2n1C1CCCC1.O=C(O)CCC(=O)O [RIBOCICLIB SUCCINATE 833268A202]	0.1	0.1			
CN(C)C(=O)c1cc2cnc(Nc3ccc(N4CCNCC4)cn3)nc2n1C1CCCC1.O=C(O)CCC(=O)O [RIBOCICLIB SUCCINATE 833268A207]	0.1	0.1			
CN(C)C(=O)c1cc2cnc(Nc3ccc(N4CCNCC4)cn3)nc2n1C1CCCC1.O=C(O)CCC(=O)O [RIBOCICLIB SUCCINATE 833268R009]	<0.1				
CN(C)C(=O)c1cc2cnc(Nc3ccc(N4CCNCC4)cn3)nc2n1C1CCCC1.O=C(O)CCC(=O)O [RIBOCICLIB SUCCINATE 834325A016]		0.1			
